{
  "source": "paper PMC10107836",
  "about": "(Chembiochem, 2022)",
  "key": {"[1]": {"target": "T1, AcmJRL (Ananas comosus, UniProt Q53J09)", "T1 sequence (Q53J09 1-145)": "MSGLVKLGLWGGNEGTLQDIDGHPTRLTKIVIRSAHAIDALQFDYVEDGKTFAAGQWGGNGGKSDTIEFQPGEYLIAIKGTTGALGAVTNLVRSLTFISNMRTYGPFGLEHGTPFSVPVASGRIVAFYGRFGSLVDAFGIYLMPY", "type": "binding", "settings": "for RFU: FITC‐labelled AcmJRL at 50 μg mL^−1, average RFU±s.d. from 6 replicates"}, "[2]": {"target": "T1, AcmJRL", "test": "Reporter ligand displacement assay", "type": "binding", "settings": "carbohydrate at 10 mM"}, "[3]": {"tested_on": "AcmJRL−S‐protein interaction", "type": "binding, SARS‐CoV‐2"}, "[4]": {"target": "T2, AcmJRL (Ananas comosus, UniProt Q53J09)", "T2 sequence (Q53J09 2-145)": "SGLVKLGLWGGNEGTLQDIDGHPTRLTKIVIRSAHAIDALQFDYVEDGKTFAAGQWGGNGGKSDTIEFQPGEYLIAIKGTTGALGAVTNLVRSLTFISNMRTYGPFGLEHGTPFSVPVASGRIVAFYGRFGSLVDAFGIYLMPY", "type": "biochemical", "settings": "SD, n = 3"}, "[5]": {"target": "T1, AcmJRL", "test": "Semiotik glycan array with Cy3-labelled AcmJRL", "type": "binding"}, "[6]": {"target": "SARS-CoV-2 spike RBD (SARS-CoV-2) (UniProt P0DTC2)", "test": "SPR"}, "[7]": {"target": "human angiotensin-converting-enzyme-2 (ACE2) receptor, recombinant (human) (UniProt Q9BYF1)", "sequence (Q9BYF1 18-740)": "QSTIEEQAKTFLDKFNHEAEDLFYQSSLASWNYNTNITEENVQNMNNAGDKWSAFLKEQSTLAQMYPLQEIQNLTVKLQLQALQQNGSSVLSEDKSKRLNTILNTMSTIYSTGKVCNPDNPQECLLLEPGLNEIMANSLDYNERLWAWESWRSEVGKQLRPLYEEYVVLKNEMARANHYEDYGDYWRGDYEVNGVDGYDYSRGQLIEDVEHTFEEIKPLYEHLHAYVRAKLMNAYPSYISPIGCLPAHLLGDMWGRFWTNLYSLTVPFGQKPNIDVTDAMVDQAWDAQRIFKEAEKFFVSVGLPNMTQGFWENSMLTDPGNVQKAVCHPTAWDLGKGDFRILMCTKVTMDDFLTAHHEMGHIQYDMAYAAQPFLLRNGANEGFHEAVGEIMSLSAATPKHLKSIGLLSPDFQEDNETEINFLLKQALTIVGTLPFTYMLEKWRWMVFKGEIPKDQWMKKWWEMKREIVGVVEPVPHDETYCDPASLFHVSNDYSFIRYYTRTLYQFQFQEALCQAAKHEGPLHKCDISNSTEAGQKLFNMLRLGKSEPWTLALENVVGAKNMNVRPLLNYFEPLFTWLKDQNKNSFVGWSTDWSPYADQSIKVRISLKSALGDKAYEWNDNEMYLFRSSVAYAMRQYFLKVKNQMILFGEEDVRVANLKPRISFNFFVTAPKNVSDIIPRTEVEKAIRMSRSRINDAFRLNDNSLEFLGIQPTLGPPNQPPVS", "test": "SPR"}},
  "note": "“And” between values parts separate entries of the source, which are not always exact repeats. Equal values may be shown once.",
  "data": [
    {"molecule": "OC[C@H]1O[C@H](O[C@H]2[C@H](O)[C@@H](O)[C@H](O)O[C@@H]2CO)[C@H](O)[C@@H](O)[C@@H]1O", "note": "[CFG‐GLYCAN ID 195, Glc‐α‐1,4‐Glc‐β]", "values": [
      {"measurement": "RFU", "setting": "[1]", "result": "33±5", "unit": "RFU"}
    ]},
    {"molecule": "CC(=O)N[C@@H]1[C@@H](O)[C@H](O)[C@@H](CO)O[C@H]1O", "note": "[D-GlcNAc, N‐acetylglucosamine]", "values": [
      {"measurement": "inhibition of AcmJRL, single concentration (in words)", "setting": "[2]", "result": "confirmed as ligands"}
    ]},
    {"molecule": "OC[C@H]1O[C@@H](O[C@H]2[C@H](O)[C@@H](O)[C@H](O)O[C@@H]2CO)[C@H](O)[C@@H](O)[C@H]1O", "note": "[D‐lactose, Gal‐β‐1,4Glc]", "values": [
      {"measurement": "effect on AcmJRL binding to S-protein (in words)", "setting": "[3]", "result": "did not interfere"}
    ]},
    {"molecule": "OC[C@H]1O[C@H](OC[C@H]2O[C@H](O[C@]3(CO)O[C@H](CO)[C@@H](O)[C@@H]3O)[C@H](O)[C@@H](O)[C@@H]2O)[C@H](O)[C@@H](O)[C@H]1O", "note": "[D‐raffinose, Gal‐α‐1,6Glc‐α‐1,2Fruc]", "values": [
      {"measurement": "effect on AcmJRL binding to S-protein (in words)", "setting": "[3]", "result": "did not interfere"}
    ]},
    {"molecule": "CO[C@H]1O[C@H](CO)[C@@H](O)[C@H](O)[C@@H]1O", "note": "[Me-α-D-Man, methyl α-D-mannopyranoside]", "values": [
      {"measurement": "IC50", "setting": "[4]", "result": 10700, "unit": "µM"}
    ]},
    {"molecule": "O=C[C@H](O)[C@@H](O)[C@H](O[C@@H]1O[C@H](CO)[C@@H](O)[C@H](O)[C@H]1O)[C@H](O)CO", "note": "[cellobiose, Glc‐β‐1,4‐Glc]", "values": [
      {"measurement": "inhibition of AcmJRL, single concentration (in words)", "setting": "[2]", "result": "had no effect"}
    ]},
    {"molecule": "N[C@H]1C(O)O[C@H](CO)[C@@H](O)[C@@H]1O", "note": "(some centres unmarked) [glucosamine]", "values": [
      {"measurement": "inhibition of AcmJRL, single concentration (in words)", "setting": "[2]", "result": "confirmed as ligands"}
    ]},
    {"molecule": "OC[C@H]1O[C@H](O[C@H]2[C@H](O)[C@@H](O)[C@H](O)O[C@@H]2CO)[C@H](O)[C@@H](O)[C@@H]1O", "note": "[maltobiose, Glc‐α‐1,4‐Glc]", "values": [
      {"measurement": "inhibition of AcmJRL, single concentration (in words)", "setting": "[2]", "result": "showed highest inhibition"}
    ]},
    {"molecule": "-3GalNAcβ1-4(L6dTalα1-3)Manα1-3L6dTalα1- [A. hydrophila O34deAc]", "values": [
      {"measurement": "binding on Semiotik glycan array (in words)", "setting": "[5]", "result": "recognised"}
    ]},
    {"molecule": "-6Manα1- [Mannan]", "values": [
      {"measurement": "binding on Semiotik glycan array (in words)", "setting": "[5]", "result": "confirmed as a ligand"}
    ]},
    {"molecule": "-8(D-Ala1-7)Leg5Acα2-4GlcAβ1-3GlcNAcβ1- [E. coli O161]", "values": [
      {"measurement": "binding on Semiotik glycan array (in words)", "setting": "[5]", "result": "recognised"}
    ]},
    {"molecule": "Manα1-6(Manα1-3)Manβ-sp4 [(Ma)3b]", "values": [
      {"measurement": "binding on Semiotik glycan array (in words)", "setting": "[5]", "result": "showed no binding"}
    ]},
    {"molecule": "Man‐α‐1,6(Man‐α‐1,3)Man‐α‐1,6(Man‐α‐1,3)Man‐β [CFG‐GLYCAN ID 310]", "values": [
      {"measurement": "RFU", "setting": "[1]", "result": "410±141", "unit": "RFU"},
      {"measurement": "binding response on CFG glycan array (in words)", "setting": "[1]; FITC‐labelled AcmJRL, 5 and 50 μg mL^−1", "result": "highest binding responses"}
    ]},
    {"molecule": "pineapple-derived jacalin-related lectin AcmJRL (natural protein)", "values": [
      {"measurement": "Kd", "setting": "[6]", "result": "12.9 µM and 35 µM"},
      {"measurement": "koff", "setting": "[6]", "result": 0.0194, "unit": "s⁻¹"},
      {"measurement": "kon", "setting": "[6]", "result": 1490, "unit": "M⁻¹ s⁻¹"},
      {"measurement": "Kd", "setting": "[7]", "result": 22.1, "unit": "µM"},
      {"measurement": "koff", "setting": "[7]", "result": 0.0122, "unit": "s⁻¹"},
      {"measurement": "kon", "setting": "[7]", "result": 590, "unit": "M⁻¹ s⁻¹"}
    ]}
  ]
}
